Source: article PMC10713630, “Elucidation of the structural basis for ligand binding and translocation in conserved insect odorant receptor co-receptors” (Nature Communications, 2023)
pEC50: −log10 of the molar value. Several values for one entry are separate records, joined by “and”; a condition that tells them apart may be missing. Equal values may be shown once.

Columns and labels:
DmelOrco F84A = DmelOrco F84A (Drosophila melanogaster, UniProt Q9VNB5, F84A); experiment: TEVC recording of VUAA1-induced current, DmelOrco F84A in Xenopus oocytes; format: cell-based
Sequence of DmelOrco F84A (Q9VNB5 whole entry F84A, the tested form may be a part): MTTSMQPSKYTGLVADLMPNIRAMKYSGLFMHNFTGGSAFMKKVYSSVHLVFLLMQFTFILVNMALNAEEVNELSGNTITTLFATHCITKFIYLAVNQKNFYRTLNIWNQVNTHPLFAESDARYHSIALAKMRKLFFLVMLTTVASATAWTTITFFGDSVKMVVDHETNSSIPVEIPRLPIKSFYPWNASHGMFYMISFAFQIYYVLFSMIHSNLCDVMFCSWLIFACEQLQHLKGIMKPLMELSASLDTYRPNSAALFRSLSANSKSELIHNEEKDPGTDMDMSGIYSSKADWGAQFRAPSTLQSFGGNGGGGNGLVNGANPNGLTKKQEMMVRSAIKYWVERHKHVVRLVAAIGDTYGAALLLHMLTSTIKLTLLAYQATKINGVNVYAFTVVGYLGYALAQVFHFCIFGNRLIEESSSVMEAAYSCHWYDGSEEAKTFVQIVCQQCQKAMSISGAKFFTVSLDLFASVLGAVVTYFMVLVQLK
Excerpt: (§1) All Orco gene sequences were optimized[63] for protein expression in Xenopus laevis oocytes with the GenSmartTM Codon optimization Tool and subcloned into a pGEMHE-derived vector. The wildtype gene of Drosophila melanogaster Orco (DmelOrco) was synthesized by Genscript and subcloned with XmaI/XhoI cloning sites. Site-directed mutagenesis of DmelOrco was done by PCR with the Q5® site directed mutagenesis kit (NEB) using primers optimized with the NEBase Changer online tool and following the supplier’s protocol. After transformation of commercial competent bacteria (XL10 Gold) by standard heat-shock protocol and overnight culture in ampicillin-containing LB plates, positive clones were identified by electrophoretic restriction profile and external sequencing (Genewiz). DNAs of positive clones were amplified with Qiagen MidiPrep Kit and the ORF was fully sequenced. For in vitro transcription, DNAs were linearized with restriction enzyme NotI that cuts a unique site in the 3′ region of the polyA tail. The linearized DNAs were purified by the standard phenol:chloroform extraction method and transcribed into mRNA using the T7 ultra mMessage mMachine kit (Thermo Fisher Scientific). mRNAs were purified with the NucleoSpin RNA plus XS kit (Machery-Nagel). DNA and RNA were analyzed by agarose-gel electrophoresis and quantified by spectrophotometry.
Xenopus laevis oocytes were prepared, as previously described. Briefly, oocytes were defolliculated after surgical retrieval by type 1 A collagenase over 2-3 h under smooth horizontal agitation. They were manually selected and incubated at 19 °C in modified-Barth’s solution (1 mM KCl, 0.82 mM MgSO4, 88 mM NaCl, 2.4 mM NaHCO3, 0.41 mM CaCl2, Ca(NO3)2 0.3 mM, 16 mM HEPES, pH 7.4) supplemented with 100 U mL^−1 of penicillin and streptomycin and 0.1 mg mL^−1 of gentamycin. […]
(§2) Whole cell currents were recorded with the two-electrode voltage-clamp (TEVC) technique with the HiClamp robot (MultiChannel System). […] Data were extracted with M. Vivaudou’s programs[65] and statistically analyzed with Prism 8 (Graphpad).

DmelOrco L141A = DmelOrco L141A (Drosophila melanogaster, UniProt Q9VNB5, L141A); experiment: TEVC recording of VUAA1-induced current, DmelOrco L141A in Xenopus oocytes; format: cell-based; conditions: 500 µM VUAA1, TEVC
Sequence of DmelOrco L141A (Q9VNB5 whole entry L141A, the tested form may be a part): as the sequence (Q9VNB5 whole entry F84A, the tested form may be a part) above, with A84F, L141A counted along it
Excerpt: as §1, with “For in vitro transcription, DNAs were linearized with restriction enzyme NotI that cuts a unique site in the 3′ region of the polyA tail. The linearized DNAs were purified by the standard phenol:chloroform extraction method and transcribed into mRNA using the T7 ultra mMessage mMachine kit (Thermo Fisher Scientific). mRNAs were purified with the NucleoSpin RNA plus XS kit (Machery-Nagel).” left out, “spectrophotometry. […]” for “spectrophotometry.”
Whole cell currents were recorded with the two-electrode voltage-clamp (TEVC) technique with the HiClamp robot (MultiChannel System). […] Data were extracted with M. Vivaudou’s programs[65] and statistically analyzed with Prism 8 (Graphpad). […]
100 by 500 µM of the ligand VUAA1 and measured by TEVC recordings on DmelOrco WT and mutants […]

DmelOrco WT = target: T1, DmelOrco WT (Drosophila melanogaster, UniProt Q9VNB5); experiment: TEVC recording of VUAA1-induced current, DmelOrco WT in Xenopus oocytes; format: cell-based; set-up: VUAA1-induced current, WT: unit not given here; conditions: for VUAA1-induced current, WT: individual oocytes
T1 sequence (Q9VNB5 1-486): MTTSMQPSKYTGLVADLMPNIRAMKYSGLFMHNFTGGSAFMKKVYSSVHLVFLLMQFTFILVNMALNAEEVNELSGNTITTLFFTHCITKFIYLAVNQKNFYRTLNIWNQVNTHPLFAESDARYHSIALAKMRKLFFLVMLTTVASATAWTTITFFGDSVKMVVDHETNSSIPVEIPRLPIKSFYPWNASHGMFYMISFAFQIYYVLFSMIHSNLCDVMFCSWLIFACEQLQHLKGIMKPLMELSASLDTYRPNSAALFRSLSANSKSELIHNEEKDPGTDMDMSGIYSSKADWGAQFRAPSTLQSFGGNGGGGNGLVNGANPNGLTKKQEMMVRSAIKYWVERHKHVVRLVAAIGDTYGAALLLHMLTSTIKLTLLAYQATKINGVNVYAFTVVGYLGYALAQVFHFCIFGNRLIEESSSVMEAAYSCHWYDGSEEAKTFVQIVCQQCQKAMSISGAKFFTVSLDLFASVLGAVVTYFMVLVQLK
Excerpt: as §1
Xenopus laevis oocytes were prepared, as previously described. Briefly, oocytes were defolliculated after surgical retrieval by type 1 A collagenase over 2-3 h under smooth horizontal agitation. They were manually selected and incubated at 19 °C in modified-Barth’s solution (1 mM KCl, 0.82 mM MgSO4, 88 mM NaCl, 2.4 mM NaHCO3, 0.41 mM CaCl2, Ca(NO3)2 0.3 mM, 16 mM HEPES, pH 7.4) supplemented with 100 U mL^−1 of penicillin and streptomycin and 0.1 mg mL^−1 of gentamycin. Each oocyte was micro-injected with the Nanoject instrument (Drummond) with 50 nL of 20 ng of mRNA coding for the Orco of interest. Injected oocytes were incubated individually in 96-well plates for 4 days at 19 °C in the same buffer. Different batches of oocytes have been tested per construct. The results of the mutants of interest have been confirmed by a second set of experiments comparing the amplitudes with WT in the same day and from the same batch of oocytes (Supplementary Fig. 11).
Whole cell currents were recorded with the two-electrode voltage-clamp (TEVC) technique with the HiClamp robot (MultiChannel System). Microelectrodes were filled with 3 M KCl. The high K^+ buffer used for recordings was composed of 91 mM KCl, 1 mM MgCl2, 1.8 mM CaCl2, 5 mM HEPES, pH 7.4. Membrane voltage was clamped to −50 mV and VUAA1 was applied for 60 s. Data were extracted with M. Vivaudou’s programs[65] and statistically analyzed with Prism 8 (Graphpad).

MdesOrco = conditions: cited from earlier work
DmelOrco Y400W = DmelOrco Y400W (Drosophila melanogaster, UniProt Q9VNB5, Y400W); experiment: TEVC recording of VUAA1-induced current, DmelOrco Y400W in Xenopus oocytes; format: cell-based; conditions: 500 µM VUAA1, TEVC
Sequence of DmelOrco Y400W (Q9VNB5 whole entry Y400W, the tested form may be a part): as the sequence (Q9VNB5 whole entry F84A, the tested form may be a part) above, with A84F, Y400W counted along it
Excerpt: as §1, with “The linearized DNAs were purified by the standard phenol:chloroform extraction method and transcribed into mRNA using the T7 ultra mMessage mMachine kit (Thermo Fisher Scientific). mRNAs were purified with the NucleoSpin RNA plus XS kit (Machery-Nagel).” left out, “spectrophotometry. […]” for “spectrophotometry.”
as §2

DmelOrco V206A = DmelOrco V206A (Drosophila melanogaster, UniProt Q9VNB5, V206A); experiment: TEVC recording of VUAA1-induced current, DmelOrco V206A in Xenopus oocytes; format: cell-based; set-up: VUAA1-induced current, V206A: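 current amplitude in µA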
Sequence of DmelOrco V206A (Q9VNB5 whole entry V206A, the tested form may be a part): as the sequence (Q9VNB5 whole entry F84A, the tested form may be a part) above, with A84F, V206A counted along it
Excerpt: as §1, with “The linearized DNAs were purified by the standard phenol:chloroform extraction method and transcribed into mRNA using the T7 ultra mMessage mMachine kit (Thermo Fisher Scientific). mRNAs were purified with the NucleoSpin RNA plus XS kit (Machery-Nagel).” left out, “spectrophotometry. […]” for “spectrophotometry.”
as §2

DmelOrco W150A = DmelOrco W150A (Drosophila melanogaster, UniProt Q9VNB5, W150A); experiment: TEVC recording of VUAA1-induced current, DmelOrco W150A in Xenopus oocytes; format: cell-based; set-up: VUAA1-induced current, W150A: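 current amplitude in µA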
Sequence of DmelOrco W150A (Q9VNB5 whole entry W150A, the tested form may be a part): as the sequence (Q9VNB5 whole entry F84A, the tested form may be a part) above, with A84F, W150A counted along it
Excerpt: as §1, with “The linearized DNAs were purified by the standard phenol:chloroform extraction method and transcribed into mRNA using the T7 ultra mMessage mMachine kit (Thermo Fisher Scientific). mRNAs were purified with the NucleoSpin RNA plus XS kit (Machery-Nagel).” left out, “spectrophotometry. […]” for “spectrophotometry.”
as §2

MdesOrco H81F = conditions: H81 replaced by phenylalanine; cited from earlier work
DmelOrco Y390F = DmelOrco Y390F (Drosophila melanogaster, UniProt Q9VNB5, Y390F); experiment: TEVC recording of VUAA1-induced current, DmelOrco Y390F in Xenopus oocytes; format: cell-based; conditions: 500 µM VUAA1, TEVC
Sequence of DmelOrco Y390F (Q9VNB5 whole entry Y390F, the tested form may be a part): as the sequence (Q9VNB5 whole entry F84A, the tested form may be a part) above, with A84F, Y390F counted along it
Excerpt: as §1, with “The linearized DNAs were purified by the standard phenol:chloroform extraction method and transcribed into mRNA using the T7 ultra mMessage mMachine kit (Thermo Fisher Scientific). mRNAs were purified with the NucleoSpin RNA plus XS kit (Machery-Nagel).” left out, “spectrophotometry. […]” for “spectrophotometry.”
as §2

DmelOrco F84W = DmelOrco F84W (Drosophila melanogaster, UniProt Q9VNB5, F84W); experiment: TEVC recording of VUAA1-induced current, DmelOrco F84W in Xenopus oocytes; format: cell-based; conditions: 500 µM VUAA1, TEVC
Sequence of DmelOrco F84W (Q9VNB5 whole entry F84W, the tested form may be a part): as the sequence (Q9VNB5 whole entry F84A, the tested form may be a part) above, with A84W counted along it
Excerpt: as §1, with “The linearized DNAs were purified by the standard phenol:chloroform extraction method and transcribed into mRNA using the T7 ultra mMessage mMachine kit (Thermo Fisher Scientific). mRNAs were purified with the NucleoSpin RNA plus XS kit (Machery-Nagel).” left out, “spectrophotometry. […]” for “spectrophotometry.”
as §2

## CCc1ccc(NC(=O)CSc2nnc(-c3cccnc3)n2CC)cc1 [VUAA1, N-(4-ethylphenyl)−2-((4-ethyl-5-(3-pyridinyl)−4H-1,2,4-triazol-3-yl)thio)acetamide]
DmelOrco F84A
  pEC50: 3.98
DmelOrco F84A; 500 µM VUAA1, TEVC, F84A
  Current induced by VUAA1 (median): 0.68 µA
DmelOrco F84A; concentration-effect curve of VUAA1, TEVC, F84A
  Imax: 1.01 µA
DmelOrco L141A
  Response to VUAA1 compared with WT: did not induce significant change
DmelOrco WT; 500 µM VUAA1, TEVC, WT
  Current induced by VUAA1 (median): 4.71 µA
DmelOrco WT; 500 µM VUAA1, TEVC, versus AbakOrco, AalbOrco, CquiOrco
  Current amplitude in the presence of VUAA1 compared with Orcos of other species: highest current amplitude
DmelOrco WT; Fig.4b
  VUAA1-induced current, WT: 1.7 and 1.54 and 2.24 and 5.84 and 5.68 and 11.97 and 10.02 and 8.3 and 7.33 and 2.12 and 1.87 and 2.7 and 3.73 and 16.35 and 2.15 and 5.7
DmelOrco WT; Fig.4i dose-response, VUAA1 10 µM (Log(M) -5)
  VUAA1-induced current, WT: 0.03 and 0.04 (2×) and 0.02 and 0.09 and 0.05 and 0.06
DmelOrco WT; Fig.4i dose-response, VUAA1 25 µM (Log(M) -4.6)
  VUAA1-induced current, WT: 0.27 and 0.36 and 0.04 (4×) and 0.08 (2×) and 0.03 (3×) and 0.02 and 0.05 (3×) and 0.15 and 0 and 0.09 and 0.12 and 0.07
DmelOrco WT; Fig.4i dose-response, VUAA1 50 µM (Log(M) -4.3)
  VUAA1-induced current, WT: 0.58 and 0.72 and 0.4 (2×) and 0.37 and 0.54 and 0.11 and 0.17 and 0.26 (3×) and 0.21 and 0.34 and 0.77 and 1.04 and 1.01 (2×) and 0.78 and 1.15 and 1.23
DmelOrco WT; Fig.4i dose-response, VUAA1 100 µM (Log(M) -4)
  VUAA1-induced current, WT: 1.33 and 1.71 and 2.65 and 2.17 (2×) and 2.77 and 1.82 and 2.07 and 2.22 and 1.61 and 2.38 and 1.2 and 1.79 and 2.19 and 2.6 and 2.64 (2×) and 1.94 and 2.47 and 2.54
DmelOrco WT; Fig.4i dose-response, VUAA1 500 µM (Log(M) -3.3)
  VUAA1-induced current, WT: 3.64 (2×) and 4.55 and 3.85 and 4.63 and 4.01 and 4.3 and 4.47 and 4.77 and 5.33 and 1.53 and 3.97 and 4.65 and 2.65 and 2.64 and 2.78 (2×)
DmelOrco WT; VUAA1 dose-response curve, TEVC, WT
  pEC50: 4.02
DmelOrco WT; concentration-effect curve of VUAA1, TEVC, WT
  Imax: 3.97 µA
MdesOrco
  Sensitivity of MdesOrco to VUAA1: VUAA1-insensitive
DmelOrco Y400W
  Response to VUAA1 compared with WT: did not significantly change the response
DmelOrco V206A; 500 µM VUAA1, TEVC, V206A
  Response to VUAA1 compared with WT: did not significantly affect the amplitude of activation
DmelOrco V206A; Fig.4b, individual oocytes
  VUAA1-induced current, V206A: 5.13 and 5.19 and 4.77 and 3.78 and 5.39 and 5.08 and 2.86 and 2.36
DmelOrco W150A; 500 µM VUAA1, TEVC, W150A
  Response to VUAA1 compared with WT: did not significantly affect the amplitude of activation
DmelOrco W150A; Fig.4b, individual oocytes
  VUAA1-induced current, W150A: 4.32 and 3.86 and 5.79 and 2.71 and 5.07 and 2.76 and 2.23 and 2.97 and 2.04 and 1.54 and 0.79 and 4.84 and 4.06 and 8
MdesOrco H81F
  Response of MdesOrco H81F to VUAA1: induced a response to VUAA1
DmelOrco Y390F
  Response to VUAA1 compared with WT: did not show significant change
DmelOrco F84W
  Response to VUAA1 compared with WT: did not induce a significant change
